# Patent publication US7288273B1, “Gallotannins and ellagitannins as regulators of cytokine release” (The Penn State Research Foundation, priority 2000, dated 2007)
# “And” between values parts separate entries of the source, which are not always exact repeats. Equal values may be shown once.
# Experiments:
# [1] = test system: LPS induced secretion of TNF-α; experiment: In vivo study in rats given LPS with or without β-PGG
# Protocol: The ability of β-PGG to function in vivo was investigated in collaboration with Dr. Charles Lang of the Hershey Medical School. In this experiment, two groups of rats were used. One group was intravenously administered 1 mg/kg of LPS as well as 25 mg of β-PGG. The second group was given only 1 mg/kg of LPS. […] These preliminary in vivo results were encouraging, however several problems with the use of β-PGG as an inhibitor are evident. A large amount of β-PGG was required to elicit inhibition because β-PGG is a small monomeric gallotannin that is able to interact with other blood proteins such as rat serum albumin.
# sarcoma-180 tumors = settings: cited from earlier work; for life span increase / regressors: Miyamoto's mouse studies, sarcoma-180; for antitumor effect, in words: mice infected with sarcoma-180 tumors
# [2] = test system: TNF-α secretion from h-PBMC's; experiment: TNF-α release from h-PBMC's, ELISA; assay type: cell-based, human
# Protocol: (§1) Authentic samples of agrimoniin and coriariin A were supplied by Professor Yoshida (Okayama University, Japan). Dimeric gallotannin (analog of coriariin A) and β-D-PGG were synthesized as described. LPS (E. coli 055:B5 phenol extract, MW range 50-100 KD). Ficoll-Histopaque (ρ=1.077 g/mL), Fetal Bovine Serum, sterile, hybridoma tested (FCS), gentamicin 10 mg/mL. L-glutamine, 200 mM. Dextran B-512 Leuconostoc Av M.W. 580000, and Trypan Blue stain were purchased from Sigma. Hanks Buffer Saline Solution 1×, with phenol red, mediatech (HBSS) and RPMI 1640 1×, mediatech were purchased from Fisher Scientific, Human IL-1β and TNF-α Enzyme Linked ImmunoSorbent Assay (ELISA) kits were purchased from R and D Systems, Minneapolis, Minn. Fresh heparinized blood was obtained from health human subjects (ages 20-34).
# (§2) Dose-Response Data: General Procedure. H-PBMC's were isolated by reported procedures (10. 18). The cells counted and the viability was determined by Trypan Blue exclusion (typically, viability exceeded 95%). The concentration of the cells in the 0.5 mL wells was adjusted to 1×10^6 cells/well by diluting with the required amount of RPMI.
# (§3) The appropriate amount of a tannin (or LPS) stock solution in HBSS was added to each well to furnish the concentration values reported in the Figures. […] The culture plates were incubated in a 5% CO2, 37° C. humidified incubator for the indicated time. At the end of the time interval, 450 μL of the culture supernatant from each well was harvested, after centrifugation at 400 g, 25° C., 10 min. with brake, and stored at −78° C. pending ELISA analysis for the cytokine(s). The ELISA assays were conducted per the manufacturer's instructions using standard calibration curves to calculate cytokine concentration from observed absorbance readings. The cytokine values reported are averages of three runs±SE.
# (§4) The dimeric antitumor ellagitannins coriariin A and agrimoniin, the monomeric gallotannin β-D-pentagalloylglucose (β-D-PGG) and the dimeric gallotannin of this invention were all examined in this study. The dimeric gallotannin is an analog of coriariin A and is identical to the parent ellagitannin except that the galloyl rings at O(4) and O(6) are not joined in a hexahydroxydiphenoyl (HHDP) linkage. h-PBMC's were incubated with the compound under investigation for the indicated length of time and the amounts of both IL-1β and, independently, TNF-α, present in the culture supernatants was determined using commercially available ELISA kits. In each case, LPS was used as a positive control while untreated cells were reserved as negative controls.
# In the first study, the induction of TNF-α secretion from h-PBMC's in the presence of each compound 17c-21c was measured. The h-PBMC's were incubated with each compound for 24 hours. The TNF-α levels in the cell culture supernatant were assayed by Enzyme Linked ImmunoSorbant Assay (ELISA). The data point for each assay represent the mean of triplicate measurements. […] (See FIG. 11).
# [3] = test system: LPS induced TNF-α secretion from h-PBMC's; experiment: Inhibition of LPS induced TNF-α secretion from h-PBMC's; assay type: cell-based, human; settings: h-PBMC's
# Protocol: In the second study, the ability of compounds 17c-20c to inhibit LPS induced TNF-α production in h-PBMC's was investigated using four assays. The first experiment was a kinetics run in which the h-PBMC's were initially incubated with a fixed concentration of LPS (5 μg/mL) for 45 minutes. This incubation period was followed by addition of a fixed concentration (10 μg/mL) of compounds 17c-20c. The cells were harvested at varying intervals of time. […] The optimal time was determined by comparing the amount of TNF-α secreted by LPS alone to the amount of TNF-α secreted by LPS and substrate at each time point.
# The second assay determined the minimum amount of substrate required for inhibition. LPS (10 μg/mL) was incubated with h-PBMC's for 45 minutes followed by addition of 17c-20c at varying concentrations. The cell culture supernatant was harvested after 8 hours. The inherent variability in using cells from different subjects, or in the day of assay, made it difficult to compare overall effectiveness of inhibitors. Therefore, to more easily identify the concentration at which maximum inhibition occurs for a given compound, the TNF-α secretion was normalized by calculating a percent of maximum secretion value (based on LPS alone) (FIG. 13). […] The optimal concentration for inhibition varied between substrates, but the general dose response trend was the same. Overall, the maximum inhibition was 45% for 18c and 20c, and 25% for 19c.
# The third assay investigated the ability of 17c, 18c, and 20c to inhibit LPS induced TNF-α secretion using a smaller dosage of LPS (5 μg/mL) (FIG. 14). Again, the response was dose dependent. The maximum inhibition was 45% for 17c and 20c, and 35% for 18c.
# In the fourth assay the varying concentrations of substrates 17c-20c and LPS were added at the same time to determine the effect of addition sequence on the inhibition of TNF-α secretion (FIG. 15). The addition time seemed to make a difference in the overall dose response trend. However, maximum inhibition was the same as when the compounds were added 45 minutes after LPS addition (about 40% for each compound).
# Finally, in the last study, analogs 19c and 20c were again tested for inhibition LPS induced TNF-α secretion (FIG. 17). In this assay a smaller dose of LPS was used to determine if inhibition was greater when much lower doses of LPS were present. The substrates were added 45 minutes after LPS addition and the cells were harvested after 8 hours. It doesn't appear as though the substrates are better inhibitors when smaller amounts of LPS are used, again perhaps reflecting receptor saturation with LPS at this dosage.
# [4] = test system: IL-1β secretion from h-PBMC's; experiment: IL-1β release from h-PBMC's, ELISA; assay type: cell-based, human; settings: h-PBMC's
# Protocol: as §1, §2, §3, §4
# In the third study, compounds 17c-20c were examined for their ability to induce secretion of IL-1β from h-PBMC's (FIG. 16). Recall from the introduction that the cytokine IL-1β is also released in an LPS-stimulated septic shock response. The compounds that cause very little secretion of IL-1β or none at all will be the optimal compounds for potential septic shock therapeutics because they will be less likely themselves to induce a septic shock response.
# L929 murine fibroblast = experiment: qualitative L929 murine fibroblast lysis assay of h-PBMC supernatant; assay type: cell-based
# Source text: This indirect measure of TNF-α levels in the h-PBMC supernatant provided the first evidence which implicated this cytokine in tannin-mediated antitumor activity and encouraged a more quantitative assessment of the TNF-α liberating capacity of agrimoniin and the related species as described below.
# [5] = test system: IL-1β secretion from h-PBMC's; settings: cited from earlier work
# [6] = in vivo; cited from earlier work
# [7] = rats, 1 mg/kg LPS intravenously and 25 mg β-PGG
# [8] = fixed concentrations, time course
molecule,measurement,setting,value
"O=C(OCC1OC(OC(=O)c2cc(O)c(O)c(O)c2)[C@H](OC(=O)c2cc(O)c(O)c(O)c2)[C@@H](OC(=O)c2cc(O)c(O)c(O)c2)C1OC(=O)c1cc(O)c(O)c(O)c1)c1cc(O)c(O)c(O)c1 (stereo partly drawn) [Compound 1, β-D-pentagalloylglucose]",TNF-α secreted from 90 min,"[1]; rats given LPS 1 mg/kg intravenously + 25 mg β-PGG (LPS + 1), 90 min, individual rats, ± SD",6919.4 ± 823.2 pg/mL and 4509.4 ± 583.3 pg/mL and 8060.7 ± 918.2 pg/mL and 1928.4 ± 331.5 pg/mL
same,TNF-α secreted after 180 min,"[1]; rats given LPS 1 mg/kg intravenously + 25 mg β-PGG (LPS + 1), 180 min, individual rats, ± SD",733.9 ± 28.3 pg/mL and 291.7 ± 68.0 pg/mL and 1347.5 ± 150.4 pg/mL and 129.9 ± 105.5 pg/mL
same,"TNF-α secretion compared to LPS-only rats, in words",[1]; [7],suppressed levels of TNF-α secretion
same,septic shock response (blood pressure),[1]; [7],low blood pressure was still observed
same,life span increase,sarcoma-180 tumors,82%
same,regressors,sarcoma-180 tumors,0/6
same,"antitumor effect, in words",sarcoma-180 tumors,much less effective antitumor agents
same,"TNF-α secretion from h-PBMC's, in words",[2],much less TNF-α discharge
same,TNF-α detected at 4 h reading,"[2]; fixed concentrations, 4 h",only trace amounts
same,time of maximum TNF-α discharge,[2]; [8],ca. 24 h
same,"inhibition of LPS induced TNF-α secretion from h-PBMC's, in words",[3],can inhibit LPS induced secretion of TNF-α
same,IL-1β detected at 4 h reading,"[4]; fixed concentrations, 4 h",only trace amounts
same,time of maximum IL-1β discharge,[4]; [8],ca. 24 h
same,"IL-1β secretion from h-PBMC's, in words",[4]; listed as β-D-PGG,effective at stimulating the production of IL-1β
same,"IL-1β secretion from h-PBMC's, in words",[4]; listed as β-PGG,high levels of IL-1β
O=C(O[C@H]1O[C@@H]2COC(=O)c3cc(O)c(O)c(O)c3-c3c(cc(O)c(O)c3O)C(=O)O[C@H]2[C@@H]2OC(=O)c3cc(O)c(O)c(O)c3-c3c(cc(O)c(O)c3O)C(=O)O[C@@H]12)c1cc(O)c(O)c(Oc2c(C(=O)O[C@H]3O[C@@H]4COC(=O)c5cc(O)c(O)c(O)c5-c5c(cc(O)c(O)c5O)C(=O)O[C@H]4[C@@H]4OC(=O)c5cc(O)c(O)c(O)c5-c5c(cc(O)c(O)c5O)C(=O)O[C@@H]34)cc(O)c(O)c2O)c1 [agrimoniin],"release of TNF-α, indirect measure by L929 lysis",L929 murine fibroblast,promoted release of TNF-α in substantial amounts
same,"antitumor effect, in words",sarcoma-180 tumors,induce tumor regression
same,IL-1β secreted (reported earlier),[5]; 20 μM agrimoniin,ca. 1.2 ng/mL
same,time of maximal IL-1β secretion,"[5]; agrimoniin-mediated, Miyamoto",ca. 24 h
same,IL-1β secreted above blank,[4]; 4 h treatment with 28 μM agrimoniin,ca. 1 ng/mL
O=C(OC1OC2COC(=O)c3cc(O)c(O)c(O)c3-c3c(cc(O)c(O)c3O)C(=O)OC2C(OC(=O)c2cc(O)c(O)c(O)c2)C1OC(=O)c1cc(O)c(O)c(O)c1)c1cc(O)c(O)c(Oc2c(C(=O)OC3OC4COC(=O)c5cc(O)c(O)c(O)c5-c5c(cc(O)c(O)c5O)C(=O)OC4C(OC(=O)c4cc(O)c(O)c(O)c4)C3OC(=O)c3cc(O)c(O)c(O)c3)cc(O)c(O)c2O)c1 (stereo not drawn) [coriariin A],"release of TNF-α, indirect measure by L929 lysis",L929 murine fibroblast,promoted release of TNF-α in substantial amounts
same,life span increase,sarcoma-180 tumors,238%
same,regressors,sarcoma-180 tumors,3/6
same,"antitumor effect, in words",sarcoma-180 tumors,induce tumor regression
same,"TNF-α secretion from h-PBMC's, in words",[2],higher levels of TNF-α
same,IL-1β inducing ability relative to agrimoniin on a molar basis,[4]; 4 h,twice that of agrimoniin
TNF-α,"clearance from serum, t1/2",[6],6.5 to 10.5 min
